Tests used:
[1] = biological target: T1, rat-species vanilloid receptor 1 (VR1/TRPV1) (Rattus norvegicus, UniProt O35433); assay: Functional testing on vanilloid receptor 1 (VR1/TRPV1): FLIPR Ca2+ inflow assay in rat dorsal root ganglia cells (% activation / % inhibition vs capsaicin); assay type: cell-based; conditions: for inhibition at 10 µM: inhibition compared to 10 μM CP (capsaicin); for activation at 10 µM: stimulation compared to 10 μM CP (capsaicin); for IC50: capsaicin (CAP) stimulus, average
T1 construct: endogenous in cells; host or cells: primary cells dissociated from rat dorsal root ganglia (DRG)
T1 sequence (O35433 whole entry): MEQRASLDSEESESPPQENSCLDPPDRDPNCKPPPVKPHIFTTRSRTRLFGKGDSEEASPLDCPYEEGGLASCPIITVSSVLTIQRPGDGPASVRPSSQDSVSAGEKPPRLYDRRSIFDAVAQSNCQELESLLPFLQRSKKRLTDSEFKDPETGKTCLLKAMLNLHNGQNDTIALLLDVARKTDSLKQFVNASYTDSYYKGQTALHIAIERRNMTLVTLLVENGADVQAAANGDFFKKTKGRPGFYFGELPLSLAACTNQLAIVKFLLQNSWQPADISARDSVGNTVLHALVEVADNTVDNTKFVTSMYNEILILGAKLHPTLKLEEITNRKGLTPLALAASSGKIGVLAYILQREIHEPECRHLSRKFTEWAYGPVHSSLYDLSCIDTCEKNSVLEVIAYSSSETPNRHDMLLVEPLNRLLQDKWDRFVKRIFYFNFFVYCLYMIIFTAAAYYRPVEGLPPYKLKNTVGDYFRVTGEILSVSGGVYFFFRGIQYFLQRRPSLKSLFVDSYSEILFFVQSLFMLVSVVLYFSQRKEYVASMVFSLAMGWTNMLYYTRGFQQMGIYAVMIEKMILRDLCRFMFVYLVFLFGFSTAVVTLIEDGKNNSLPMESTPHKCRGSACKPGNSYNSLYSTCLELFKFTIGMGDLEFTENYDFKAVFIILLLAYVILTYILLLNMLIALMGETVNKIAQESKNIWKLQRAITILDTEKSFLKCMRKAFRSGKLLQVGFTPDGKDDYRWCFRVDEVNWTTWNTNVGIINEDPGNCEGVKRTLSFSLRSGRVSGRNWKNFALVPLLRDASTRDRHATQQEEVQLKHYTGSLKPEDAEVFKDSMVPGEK
Outline: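 Rat dorsal root ganglion cells, dissociated with collagenase and trypsin, were plated at 3×10^5/mL on laminin-coated plates in NGF-containing HAMS F12 and cultured 2-3 days at 37° C. Ca2+ inflow read by Fluo-4 fluorescence on FLIPR; test compounds at 10 μM referenced to 10 μM capsaicin.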

vanilloid receptor (VR1) = biological target: T2, vanilloid receptor (VR1) (Homo sapiens, UniProt Q8NER1); assay: Functional testing on vanilloid receptor (VR1): FLIPR Ca2+ inflow assay in CHO K1 cells stably transfected with the VR1 gene; assay type: cell-based; conditions: for inhibition at 10 µM: CHO-K1, inhibition compared to 10 μM CP (capsaicin); for activation at 10 µM: CHO-K1, stimulation compared to 10 μM CP (capsaicin); for IC50: capsaicin (CAP) stimulus, average
T2 construct: expressed in transfected cells; host or cells: CHO K1 cells (ECACC), stably transfected
T2 sequence (Q8NER1 whole entry): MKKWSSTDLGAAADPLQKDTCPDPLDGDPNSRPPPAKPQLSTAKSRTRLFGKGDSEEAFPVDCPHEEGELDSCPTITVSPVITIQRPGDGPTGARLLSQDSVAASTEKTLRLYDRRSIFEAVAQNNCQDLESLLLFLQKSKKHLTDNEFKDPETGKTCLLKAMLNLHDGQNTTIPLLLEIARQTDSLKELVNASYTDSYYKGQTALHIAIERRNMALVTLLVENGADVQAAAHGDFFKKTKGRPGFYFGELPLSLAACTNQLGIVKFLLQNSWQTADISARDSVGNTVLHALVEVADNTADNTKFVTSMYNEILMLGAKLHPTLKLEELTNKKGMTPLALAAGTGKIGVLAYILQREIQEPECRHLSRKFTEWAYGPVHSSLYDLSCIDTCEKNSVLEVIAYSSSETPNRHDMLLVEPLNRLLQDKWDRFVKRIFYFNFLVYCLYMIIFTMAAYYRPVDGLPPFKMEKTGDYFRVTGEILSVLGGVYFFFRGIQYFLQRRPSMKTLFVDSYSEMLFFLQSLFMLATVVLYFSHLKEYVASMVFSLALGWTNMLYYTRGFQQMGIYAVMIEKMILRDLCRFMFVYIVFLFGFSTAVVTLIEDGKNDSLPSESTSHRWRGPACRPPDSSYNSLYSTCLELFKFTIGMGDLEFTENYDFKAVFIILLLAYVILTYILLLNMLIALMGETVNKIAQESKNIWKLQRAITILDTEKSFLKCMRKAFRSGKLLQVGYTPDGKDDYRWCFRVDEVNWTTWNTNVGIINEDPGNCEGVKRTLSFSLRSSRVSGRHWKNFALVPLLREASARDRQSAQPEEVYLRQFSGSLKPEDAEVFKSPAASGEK
Outline: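 CHO K1 cells stably expressing VR1, loaded with Fluo-4 (2 μM, 30 min, 37° C); peak Ca²⁺ fluorescence read on FLIPR. Compound (10 μM) added first, agonism as % of 10 μM capsaicin signal; after 5 min, 100 nM capsaicin added, % inhibition calculated relative to maximal inhibition with 10 μM capsaicin.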

inhibition at 10 µM [1]	activation at 10 µM [1]	inhibition at 10 µM (vanilloid receptor (VR1))	activation at 10 µM (vanilloid receptor (VR1))	IC50 [1]	IC50 (vanilloid receptor (VR1))	SMILES
80.5%	0.08%	-10.8%	-0.07%	–	–	COc1cccc(C2=NOC3(CCN(C(=O)Nc4ccc(SC)cc4)CC3)C2)c1 [Compound 65, 3-(3-methoxyphenyl)-1-oxa-2,8-diazaspiro[4.5]dec-2-ene-8-carboxylic acid-(4-methylsulphanylphenyl)amide]
99%	35%	12%	1%	–	–	CC(C)(C)c1ccc(NC(=O)N2CCC3(CC(c4ccccc4)=NO3)C2)cc1 (stereo not drawn) [Compound 371, N-(4-tert-butylphenyl)-3-phenyl-1-oxa-2,7-diazaspiro[4.4]non-2-ene-7-carboxamide]
49.2%	-0.47%	-13.1%	0.07%	–	–	COc1cccc(C2=NOC3(CCN(C(=O)NCCc4ccccc4)CC3)C2)c1 [Compound 122, 3-(3-methoxyphenyl)-1-oxa-2,8-diazaspiro[4.5]dec-2-ene-8-carboxylic acid phenethylamide]
77%	1%	18%	-2%	59.8 nM	–	CC1CN(C(=O)Nc2ccc(C(F)(F)F)cc2)CCC12CC(c1ccccc1)=NO2 (stereo not drawn) [Compound 385, 6-methyl-3-phenyl-N-(4-(trifluoromethyl)phenyl)-1-oxa-2,8-diazaspiro[4.5]dec-2-ene-8-carboxamide]
101%	9%	29%	8%	–	–	CC(C)(C)c1ccc(NC(=O)N2CCC3(CC2)CC(c2cccc(Cl)c2)=NO3)cc1 [Compound 333, N-(4-tert-butylphenyl)-3-(3-chlorophenyl)-1-oxa-2,8-diazaspiro[4.5]dec-2-ene-8-carboxamide]
39.9%	0.15%	-23.9%	0.33%	–	–	COc1cccc(NC(=O)N2CCC3(CC2)CC(c2ccccc2)=NO3)c1 [Compound 205, 3-phenyl-1-oxa-2,8-diazaspiro[4.5]dec-2-ene-8-carboxylic acid-(3-methoxyphenyl)amide]
95.4%	3.81%	5.49%	0.1%	–	–	COc1cccc(C2=NOC3(CCN(C(=O)Nc4ccc(C(C)C)cc4)CC3)C2)c1 [Compound 77, 3-(3-methoxyphenyl)-1-oxa-2,8-diazaspiro[4.5]dec-2-ene-8-carboxylic acid-(4-isopropylphenyl)amide]
81%	1%	-4%	0%	–	–	CC(C)(C)c1ccc(CCC(=O)N2CCC3(CC2)CC(c2ccccc2)=NO3)cc1 [Compound 350, 3-(4-tert-butylphenyl)-1-(3-phenyl-1-oxa-2,8-diazaspiro[4.5]dec-2-en-8-yl)propan-1-one]
106%	4%	50%	-1%	–	–	CC1CN(C(=O)Nc2ccc(C(C)(C)C)cc2)CCC12CC(c1ccccc1F)=NO2 (stereo not drawn) [Compound 364, N-(4-tert-butylphenyl)-3-(2-fluorophenyl)-6-methyl-1-oxa-2,8-diazaspiro[4.5]dec-2-ene-8-carboxamide]
81%	0%	30%	0%	–	–	O=C(C#Cc1ccc(C(F)(F)F)cc1)N1CCC2(CC1)CC(c1ccccc1)=NO2 [Compound 363, 1-(3-phenyl-1-oxa-2,8-diazaspiro[4.5]dec-2-en-8-yl)-3-(4-(trifluoromethyl)phenyl)prop-2-yn-1-one]
99.2%	1.4%	9.67%	9.37%	–	–	COc1cccc(C2=NOC3(CCN(C(=O)Nc4ccc(C(C)(C)C)cc4)CC3)C2)c1 [Compound 140, 3-(3-methoxyphenyl)-1-oxa-2,8-diazaspiro[4.5]dec-2-ene-8-carboxylic acid-(4-tert-butylphenyl)amide]
97.5%	0.33%	9.23%	-0.18%	–	–	O=C(Nc1ccc(C(F)(F)F)cc1)N1CCC2(CC1)CC(c1ccccc1)=NO2 [Compound 211, 3-phenyl-1-oxa-2,8-diazaspiro[4.5]dec-2-ene-8-carboxylic acid-(4-trifluoromethylphenyl)amide]
45.7%	-0.33%	-7.17%	4.12%	–	–	CC(C)(C)c1ccc(NC(=O)N2CCC3(CC2)CC(c2ccc(C(C)(C)C)cc2)=NO3)cc1 [Compound 143, 3-(4-tert-butylphenyl)-1-oxa-2,8-diazaspiro[4.5]dec-2-ene-8-carboxylic acid-(4-tert-butylphenyl)amide]
82%	-6%	6%	0%	150 nM	825 nM	O=C(C=Cc1ccc(C(F)(F)F)cc1)N1CCC2(CC1)CC(c1ccccc1)=NO2 [Compound 314, 1-(3-phenyl-1-oxa-2,8-diazaspiro[4.5]dec-2-en-8-yl)-3-(4-trifluoromethylphenyl)propenone]
74%	0.11%	25%	-0.14%	–	–	COc1cccc(C2=NOC3(CCN(C(=O)Nc4ccc(Cl)cc4)CC3)C2)c1 [Compound 39, 3-(3-methoxyphenyl)-1-oxa-2,8-diazaspiro[4.5]dec-2-ene-8-carboxylic acid-(4-chlorophenyl)amide]
55.5%	-0.73%	0.17%	-0.04%	–	–	CC(C)(C)c1ccc(C2=NOC3(CCN(C(=O)Nc4ccc(I)cc4)CC3)C2)cc1 [Compound 45, 3-(4-tert-butylphenyl)-1-oxa-2,8-diazaspiro[4.5]dec-2-ene-8-carboxylic acid-(4-iodophenyl)amide]
80%	3%	12%	0%	–	–	CC(C)(C)c1ccc(/C(=C/C(=O)N2CCC3(CC2)CC(c2cccc(F)c2)=NO3)c2ccc(Cl)c(Cl)c2)cc1 [Compound 360, (Z)-3-(4-tert-butylphenyl)-3-(3,4-dichlorophenyl)-1-(3-(3-fluorophenyl)-1-oxa-2,8-diazaspiro[4.5]dec-2-en-8-yl)prop-2-en-1-one]
47.4%	-0.43%	17.5%	0.06%	–	–	CCc1ccc(NC(=O)N2CCC3(CC2)CC(c2ccc(C(F)(F)F)cc2)=NO3)cc1 [Compound 167, 3-(4-trifluoromethylphenyl)-1-oxa-2,8-diazaspiro[4.5]dec-2-ene-8-carboxylic acid-(4-ethylphenyl)amide]
95%	0%	41%	0%	148 nM	1110 nM	CC(C)(C)c1ccc(C(/C=C/c2ccccc2)=C/C(=O)N2CCC3(CC2)CC(c2cccc(F)c2)=NO3)cc1 [Compound 358, (2E,4E)-3-(4-tert-butylphenyl)-1-(3-(3-fluorophenyl)-1-oxa-2,8-diazaspiro[4.5]dec-2-en-8-yl)-5-phenylpenta-2,4-dien-1-one]

From patent publication US8772307B2, “Substituted spiro compounds and their use for producing pain-relief medicaments” (Gruenenthal GmbH, priority 2005, dated 2014)
